Measurements from patent US8652087B2, “Method for use of microdialysis” (priority 2009, dated 2014).

Assays:
[1] = system: red blood cells; details: in the first 1-2 minutes; cited from earlier work
[2] = at 37° C.; cited from earlier work
[3] = Charcoal MTZ adsorption kinetics study (PMD and direct donor sampling); assay type: physicochemical; details: 37° C., first minute after charcoal addition
Protocol: A charcoal suspension was prepared at least 24 hours before use by adding 0.6 g of activated charcoal (Sigma Chemical, St. Louis, Mo.) to 100 mL of 0.6% Dextran Solution (Birkmeier et al., 1995). A donor solution of MTZ in 0.005N NaOH was made with an initial concentration of C0=200 μg/mL and volume of 48 mL. A probe was immersed in the solution, and PMD was started before adding the charcoal using a dialysate that initially contained no MTZ. Samples were collected every 10 seconds, using a resting time of 8 seconds, a flow rate of 100 μL/min, and a sample volume of 5 μL. After collecting at least six samples, 2 mL of the charcoal suspension was quickly (in 1-2 seconds) mixed into 48 mL of stirred MTZ solution, giving a final volume of 50 mL. […] Samples were collected during 10 second intervals, and the start times for the sampling intervals were 0, 0.2, 0.4, 0.7, 1, 2, 5, 10 and 30 minutes. The flow rate was 100 μL/min, the rest time was 8 seconds, and the sample volume was 5 μL. The samples were immediately analyzed using HPLC. […] Direct sampling of the donor was also done at various times for comparison with the PMD data. The direct donor samples were immediately filtered to remove the activated charcoal and analyzed using HPLC.

[4] = Benzocaine release from self-emulsifying microemulsion systems by PMD; assay type: physicochemical; details: occupying the probe window for one minute; Tween 20:Cremophor EL:peppermint oil systems diluted 1:25 in water
Protocol: The medium outside the probe served as the receiver in this case. Before the PMD experiments, various anhydrous liquid systems were made, to be used to release benzocaine. In all cases, two surfactants, Tween 20 and Cremophor EL (both from Sigma Chemical, St. Louis, Mo.), were blended in a 2:1 (weight:weight) ratio. Various amounts of peppermint oil were added (from 0 to 30% oil by weight) to make the anhydrous systems. Benzocaine (50 mg per gram of peppermint oil) was subsequently added to each system, and stirring was done until all benzocaine was dissolved and distributed within the oil and surfactant blend. These anhydrous systems were then diluted 1:25 in water, and used as the dialysate. A probe was immersed in 50 mL of water (which served as the receiver) that initially contained no drug. Since benzocaine is a weak base, various pH values were used, but the pH of the water and dialysate were the same in all cases. The dialysate (containing the microemulsions and acting as the donor) was pumped into the probe window, allowed to remain at rest for various resting times (5-100 seconds), pumped out and collected, and subsequently assayed for benzocaine content to determine the fraction of benzocaine lost as a function of the total time in the probe window. The flow rate Q was 100 μL/min and the sample volume was 5 μL.

CC(=O)/N=c1/sc(S(N)(=O)=O)nn1C [MTZ, methazolamide]
decrease of buffer concentration by uptake into red blood cells [1]: 50% | diffusion coefficient (value of the reference drug) [2]: 4×10^−6 cm^2/s | decline of concentration during the first minute [3]: ~50%

CCOC(=O)c1ccc(N)cc1 [benzocaine]
benzocaine lost from microemulsion dialysate [4]: ≤ 90%
